Measurements published in the NIST ThermoML archive (doi:10.1021/acs.jced.8b00948).

Test: xn = mol fraction of the nth substance listed
Conditions: for surface tension liquid-gas: Pendant drop shape; for viscosity: 101 kPa, Liquid, Concentric cylinders viscometry

COS(=O)(=O)[O-].Cn1cc[n+](C)c1 [1,3-dimethylimidazolium methylsulfate] + CCCCCO
Conditions	surface tension liquid-gas, 298.15 K [mN/m]	surface tension liquid-gas, 303.15 K [mN/m]	surface tension liquid-gas, 308.15 K [mN/m]	surface tension liquid-gas, 313.15 K [mN/m]	viscosity, 298.15 K [mPa·s]	viscosity, 303.15 K [mPa·s]	viscosity, 308.15 K [mPa·s]	viscosity, 313.15 K [mPa·s]
x1 = 0.1	28	27.6	27.2	26.9	9.23	7.19	6.2	5.25
x1 = 0.35	36.2	35.9	35.6	35.3	24.7	19.4	15.7	12.7
x1 = 0.54	42.6	42.3	42	41.7	38.2	29.9	24.1	19.8
x1 = 0.661	46.7	46.4	46.1	45.8	47.7	37.3	30	24.7
x1 = 0.79	51.1	50.8	50.5	50.3	58.9	46.5	37.5	30.8
x1 = 0.931	56.1	55.8	55.5	55.2	71.8	57.1	46	37.8
x1 = 1	58.5	58.2	57.9	57.6	78	61.9	49.9	40.9

COS(=O)(=O)[O-].Cn1cc[n+](C)c1 [1,3-dimethylimidazolium methylsulfate] + CCCCO
Conditions	surface tension liquid-gas, 298.15 K [mN/m]	surface tension liquid-gas, 303.15 K [mN/m]	surface tension liquid-gas, 308.15 K [mN/m]	surface tension liquid-gas, 313.15 K [mN/m]	viscosity, 298.15 K [mPa·s]	viscosity, 303.15 K [mPa·s]	viscosity, 308.15 K [mPa·s]	viscosity, 313.15 K [mPa·s]
x1 = 0.063	26	25.6	25.2	24.8	5.34	4.58	3.86	3.2
x1 = 0.221	31.2	30.9	30.6	30.2	13.5	10.5	8.53	7.18
x1 = 0.432	38.3	38.1	37.8	37.5	26.3	20.2	16.1	13.6
x1 = 0.64	45.5	45.3	45	44.7	41.4	32.6	26.1	21.9
x1 = 0.781	50.5	50.3	50	49.7	54	43.3	34.8	29
x1 = 0.927	55.8	55.5	55.2	55	69.7	55.5	45	37
x1 = 1	58.5	58.2	57.9	57.6	78	61.9	49.9	40.9

COS(=O)(=O)[O-].Cn1cc[n+](C)c1 [1,3-dimethylimidazolium methylsulfate] + CCCO
Conditions	surface tension liquid-gas, 298.15 K [mN/m]	surface tension liquid-gas, 303.15 K [mN/m]	surface tension liquid-gas, 308.15 K [mN/m]	surface tension liquid-gas, 313.15 K [mN/m]	viscosity, 298.15 K [mPa·s]	viscosity, 303.15 K [mPa·s]	viscosity, 308.15 K [mPa·s]	viscosity, 313.15 K [mPa·s]
x1 = 0.039	24.5	24	23.6	23.2	3.15	2.97	2.53	2.2
x1 = 0.208	30.1	29.8	29.4	29.1	10.7	8.55	6.76	6.05
x1 = 0.382	36.1	35.8	35.5	35.2	19.6	15.4	12.2	10.5
x1 = 0.561	42.3	42.1	41.8	41.6	31.3	25.1	20.1	16.8
x1 = 0.702	47.4	47.2	46.9	46.6	42.5	34.7	28.1	23.2
x1 = 0.912	55.1	54.9	54.6	54.3	65.2	52.9	42.7	35.3
x1 = 1	58.5	58.2	57.9	57.6	78	61.9	49.9	40.9

CCn1cc[n+](C)c1.COS(=O)(=O)[O-] [1-ethyl-3-methylimidazolium methylsulfate] + CCCCCO
Conditions	surface tension liquid-gas, 298.15 K [mN/m]	surface tension liquid-gas, 303.15 K [mN/m]	surface tension liquid-gas, 308.15 K [mN/m]	surface tension liquid-gas, 313.15 K [mN/m]	viscosity, 298.15 K [mPa·s]	viscosity, 303.15 K [mPa·s]	viscosity, 308.15 K [mPa·s]	viscosity, 313.15 K [mPa·s]
x1 = 0.05	26.1	25.7	25.3	24.9	5.15	4.07	3.74	3.24
x1 = 0.284	32.3	32	31.6	31.3	14.8	11.9	10.2	8.52
x1 = 0.459	37.1	36.8	36.5	36.2	24.4	19.4	16.3	13.6
x1 = 0.613	41.4	41.1	40.8	40.5	34.7	27.3	22.5	18.7
x1 = 0.768	45.8	45.5	45.2	44.9	46.9	37	30.5	25.2
x1 = 0.922	50.3	50	49.7	49.4	60.9	48.8	40.1	33.3
x1 = 1	52.5	52.2	51.9	51.6	68.5	55.4	45.5	37.9
